Data set [1] can be described thus: covalent protein binding assay with liver microsomes. The class given is in vitro ADME. The conditions noted are these: radiolabeled compound incubated with human liver microsomes. On the procedure: MRK-560 and Example 2 were tested in a covalent protein binding assay which is predictive of drug toxicity. The potential of drug candidates to cause covalent binding to proteins is evaluated by incubation of the radiolabeled version of the compound in question with liver microsomes. A semi-automated method based on Brandel Harvester technique is then used to measure the formation of covalent adducts of the test compound to liver proteins binding (Ref. Day et. al, J Pharmacol Toxicol Methods. 52, 278-85, 2005).

Data set [2] addresses T1, pregnane X receptor (PXR) (Homo sapiens, UniProt O75469).
T1 construct: expressed in transfected cells; host or cells: HEP G2
T1 sequence (O75469 1-434): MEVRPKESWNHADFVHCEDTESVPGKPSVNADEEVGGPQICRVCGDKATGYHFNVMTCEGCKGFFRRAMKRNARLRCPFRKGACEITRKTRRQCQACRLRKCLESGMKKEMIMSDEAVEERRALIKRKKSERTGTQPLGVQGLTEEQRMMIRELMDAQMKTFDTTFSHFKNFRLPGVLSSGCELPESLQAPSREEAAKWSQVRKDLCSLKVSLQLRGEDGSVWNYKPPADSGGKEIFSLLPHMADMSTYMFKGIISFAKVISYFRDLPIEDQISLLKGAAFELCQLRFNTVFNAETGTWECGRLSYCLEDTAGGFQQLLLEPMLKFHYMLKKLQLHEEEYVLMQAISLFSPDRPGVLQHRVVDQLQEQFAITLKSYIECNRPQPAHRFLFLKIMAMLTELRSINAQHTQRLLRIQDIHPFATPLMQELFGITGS
T1 sequence (P19793 1-462 partner): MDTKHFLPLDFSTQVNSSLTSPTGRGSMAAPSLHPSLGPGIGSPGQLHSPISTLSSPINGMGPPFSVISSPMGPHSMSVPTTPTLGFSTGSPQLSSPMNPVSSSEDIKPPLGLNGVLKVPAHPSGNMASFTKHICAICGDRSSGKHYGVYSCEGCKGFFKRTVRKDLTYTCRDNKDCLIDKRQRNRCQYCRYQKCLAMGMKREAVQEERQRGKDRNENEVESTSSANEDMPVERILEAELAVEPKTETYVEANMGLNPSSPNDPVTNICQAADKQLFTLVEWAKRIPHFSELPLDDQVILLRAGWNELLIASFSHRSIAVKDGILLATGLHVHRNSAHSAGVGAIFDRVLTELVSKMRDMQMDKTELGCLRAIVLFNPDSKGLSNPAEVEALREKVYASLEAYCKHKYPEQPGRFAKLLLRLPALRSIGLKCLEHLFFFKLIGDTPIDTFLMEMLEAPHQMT
The data set is described as follows: PXR assay (CYP3A4-SEAP transactivation assay, PCSTA). It is filed as cell-based. The settings on record: HEP G2 cells. An excerpt: The CYP3A4-SEAP transactivation assay (PCSTA) effectively and rapidly evaluates compounds for their potential to induce cytochrome P450 CYP3A (human CYP3A4 or rat CYP3A1). The reporter construct contains regulatory regions from the CYP3A4 gene positioned just upstream of a secreted alkaline phosphatase (SEAP) gene. The human PXR nuclear receptor has been modified at the 5′-end so that methionine is the initiating amino acid replacing leucine found in the wild-type sequence. HEP G2 cells are transfected with the PXR plasmid (human or rat) and the reporter plasmid. Read-out for the induction of CYP3A4 consists of a SEAP calorimetric assay with para-nitro-phenyl phosphate (pNPP) as the substrate. Five point dose-response curves in duplicate are then generated with each point corresponding to the rate of conversion of pNPP to pNP by SEAP. For the human PCSTA, rifampicin is used as the positive control and 100% induction is based upon the maximum induction produced by rifampicin at 10 μM.

Data set [3] relates to ε/S3-site cleavage of γ-secretase substrates (APP-GVP, NotchΔE-GVP, E-cadherin-GVP, CD44-GVP). The data set is described as follows: ICD transactivation assay (intracellular domain release of γ-secretase substrates). The class given is cell-based. The settings on record: HEK cells, 1 μM, 48 hours. The source says: ICD Transactivation (Assay Quantitates Intracellular Domain Release of a Panel of γ-Secretase Substrates in Cell Lines)
A Firefly luciferase based transactivation assay is used to measure inhibition of ε/S3-site cleavage of γ-secretase substrates. This assay involves the use of chimeric substrates harboring a GAL4/VP16 (GVP) transactivation domain fused to the intracellular domain (ICD): APP-GVP, NotchΔE-GVP, E-cadherin-GVP and CD44-GVP. Upon cleavage and release of ICDs, the GVP domain drives the expression of the luciferase gene under the control of the UAS promoter. In this assay, HEK cells were transiently co-transfected with the chimeric substrate along with a UAS promoter driven luciferase and β-galactosidase (transfection control). Upon cleavage by γ-secretase, the released ICD-GVP translocates to the nucleus to drive the expression of the UAS-luciferase gene. The activity of luciferase in these cells is directly proportional to the amount of γ-secretase-cleaved ICDs. Luciferase activity is determined by the standard techniques of luciferin addition to lysed cells and measurement of total luminescence. In addition, to account for the differences in transfection efficiencies an absorbance based β-galactosidase enzyme assay is performed to normalize the luminescence read-out.

Data set [4] deals with γ-secretase substrates NotchΔE, E-cadherin, SCN2b and CD43 in HEK293 cells. The data set is described as follows: Full length γ-secretase substrates, immunoblot of cell lysates. It is filed as cell-based. The settings on record: titrated concentrations with TPA. On the procedure:
Assessing Full Length γ-Secretase Substrates (Assay Qualitatively Assesses the Processing of a Panel of γ-Secretase Substrates)
Cells are plated and treated overnight with titrated compound and the phorbol ester, TPA. Since all of the proteins undergo regulated membrane proteolysis characterized by an initial ectodomain shedding event followed by the intramembraneous cleavage of the […] fragment (CTF) by γ-secretase, TPA induces the initial cleavage event producing the substrate for γ-secretase. The effect of compounds on γ-secretase activity in relation to these substrates is measured by tracking the processing of the V5 tagged CTFs by Western blot analysis. Accumulation of the CTFs indicates inhibition of γ-secretase activity.
In general terms: A western blot detects proteins with antibodies after separation by electrophoresis.

The test system of a further data set is γ-secretase complex. The data set can be described thus: Compound binding assay (displacement of tritiated γ-secretase inhibitor tracers). The conditions noted are these: semi-purified γ-secretase complex, increasing concentrations. On the procedure: Compound Binding: (Assay Quantitates In Vitro Displacement of Bound γ-Secretase Inhibitor Tracers)
All radioligand binding experiments are performed using CHAPSO-solubilized HEK293 (gammaNRCF8) P2 membranes stably over expressing recombinant gamma secretase. For radioligand binding, solubilized enzyme is incubated in the presence of tritiated inhibitors. Nonspecific binding is determined by adding an excess of unlabeled inhibitor to the reaction, and serial dilutions of the tritiated ligands are used to obtain saturation binding isotherm. Bound ligand is separated from free ligand by adsorption of the enzyme complex to polyethyleneimine-coated glass fiber filter plates and rapid filtration in a cell harvester followed by washing. After drying plates, scintillant is added, and the plates are read on a Microplate Scintillation counter. Binding competition assay is performed by incubating serial dilutions of various inhibitors in the presence of 1 nM ^3H-labeled compound Reference Example L-458 (transition state inhibitor) or 4 nM ^3H-labeled compound Reference Example L-881 (non-transition state inhibitor). To determine the antagonist competitiveness of various inhibitors, respective ^3H tracer doss-response curves are analyzed in presence of different concentrations of these compounds.

The test system of data set [5] is APP and Notch processing pathway. The conditions noted are these: literature report; cited from earlier work.
The next data set deals with Tg2576 mouse. The settings on record: cited from earlier work.

Molecules are shown by their SMILES. “Also recorded” adds a separate entry of the source.

In general, EC50 refers to the concentration needed to bring the measured effect to its halfway point.

Regarding `O=S(=O)(NC1CCC(c2cc(F)ccc2F)(S(=O)(=O)c2ccc(Cl)cc2)CC1)C(F)(F)F` (stereo not shown) [MRK-560], the “covalent protein binding (human microsomes)” value in data set [1] worked out at 1308 pmol/mg. The same molecule showed an EC50 in data set [2] of 617 nM. For the same molecule, in data set [3], the “ICD release of γ-secretase substrates (ε/S3-cleavage)” value is “inhibited ICD release of all examined substrates”. In data set [4] (HEK293 cells overexpressing E-cadherin, SCN2b, CD43), the “accumulation of CTFs (immunoblot)” value is “caused accumulation of CTFs; also recorded: SCN2b-, ECAD- and CD43-CTF accumulation”. Also, the “NICD generation (immunoblot)” value in data set [4] (HEK293 cells overexpressing NotchΔE) is reported as “inhibited NICD generation”. In the data set with γ-secretase complex, the “displacement of tritiated tracer L-458 (transition state)” value is “partial” and the “displacement of tritiated tracer L-881 (non transition state)” value was “full”. Besides, the “separation between in vitro inhibition of APP and Notch processing pathway” value in data set [5] is given as “little or no separation”. Further, in the data set on Tg2576 mouse, the “effects on amyloid plaque deposition” value is reported as “beneficial effects on amyloid plaque deposition” and the “toxicity related to changes in the Notch signaling pathway” value is recorded as “absence of toxicity”.

These data come from US8759579B2, “Cyclobutyl sulfones as notch sparing gamma secretase inhibitors” (Merck Sharp & Dohme Corp., priority 2008, dated 2014).
